Reference: PubChem BioAssay AID330 (DTP/NCI, 2004)
“And” between values parts separate entries of the source, which are not always exact repeats. Equal entries are not always repeated. Inconclusive results and toxic doses are left out.

Tested on: P388 leukemia ip, CD2F1 mice, survival T/C
Assay: NCI In Vivo Anticancer Drug Screen. Data for tumor model P388 Leukemia (intraperitoneal) in CD2F1 (CDF1) mice
Settings: endpoint: median survival time, higher = longer survival
Method in brief: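 Mice carrying the transplanted tumor received test compound or vehicle. Survival was recorded in each group, and the value is the treated-group measurement divided by that of the vehicle-treated control group.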

[1] = dose: 100.0 mg/kg/injection, schedule: Q04DX003 (ip), vehicle: Klucel (hydroxypropylcellulose) (HPC)
[2] = dose: 200.0 mg/kg/injection, schedule: Q04DX003 (ip), vehicle: Klucel (hydroxypropylcellulose) (HPC)
[3] = dose: 400.0 mg/kg/injection, schedule: Q04DX003 (ip), vehicle: Klucel (hydroxypropylcellulose) (HPC)
[4] = dose: 50.0 mg/kg/injection, schedule: Q01DX005 (ip), vehicle: saline
[5] = dose: 100.0 mg/kg/injection, schedule: Q01DX005 (ip), vehicle: saline
[6] = dose: 60.0 mg/kg/injection, schedule: Q01DX005 (ip), vehicle: saline with Tween-80
[7] = dose: 120.0 mg/kg/injection, schedule: Q01DX005 (ip), vehicle: saline with Tween-80
[8] = dose: 100.0 mg/kg/injection, schedule: Q01DX009 (ip), vehicle: saline
[9] = dose: 200.0 mg/kg/injection, schedule: Q01DX009 (ip), vehicle: saline
[10] = dose: 50.0 mg/kg/injection, schedule: Q01DX009 (ip), vehicle: saline with Tween-80
[11] = dose: 100.0 mg/kg/injection, schedule: Q01DX009 (ip), vehicle: saline with Tween-80
[12] = dose: 200.0 mg/kg/injection, schedule: Q01DX009 (ip), vehicle: saline with Tween-80
[13] = dose: 50.0 mg/kg/injection, schedule: Q01DX009 (ip), vehicle: saline
[14] = dose: 50.0 mg/kg/injection, schedule: Q01DX005 (ip), vehicle: saline with Tween-80
[15] = dose: 100.0 mg/kg/injection, schedule: Q01DX005 (ip), vehicle: saline with Tween-80
[16] = dose: 200.0 mg/kg/injection, schedule: Q01DX005 (ip), vehicle: saline with Tween-80

CCOC(=O)Nc1ccc(OCC)cc1
T/C [1]: 107 % of control
T/C [2]: 100 % of control
T/C [3]: 92 % of control

C#CCC(N)C(=O)O (centres undefined)
T/C (dose: 12.5 mg/kg/injection, schedule: Q01DX005 (ip), vehicle: saline): 107 % of control
T/C (dose: 25.0 mg/kg/injection, schedule: Q01DX005 (ip), vehicle: saline): 111 % of control
T/C [4]: 100 % of control and 106 % of control
T/C [5]: 108 % of control

Cc1n[nH]c2ccc([N+](=O)[O-])cc2c1=O
T/C (dose: 6.25 mg/kg/injection, schedule: Q01DX009 (ip), vehicle: saline with Tween-80): 100 % of control
T/C (dose: 12.5 mg/kg/injection, schedule: Q01DX009 (ip), vehicle: saline with Tween-80): 100 % of control
T/C (dose: 25.0 mg/kg/injection, schedule: Q01DX009 (ip), vehicle: saline with Tween-80): 90 % of control
T/C (dose: 50.0 mg/kg/injection, schedule: Q04DX003 (ip), vehicle: saline with Tween-80): 100 % of control
T/C (dose: 100.0 mg/kg/injection, schedule: Q04DX003 (ip), vehicle: saline with Tween-80): 95 % of control
T/C (dose: 200.0 mg/kg/injection, schedule: Q04DX003 (ip), vehicle: saline with Tween-80): 100 % of control

Nc1noc(N)n1
T/C [4]: 107 % of control
T/C [5]: 110 % of control
T/C (dose: 200.0 mg/kg/injection, schedule: Q01DX005 (ip), vehicle: saline): 124 % of control

NNc1ccc2cccc([N+](=O)[O-])c2n1
T/C (dose: 25.0 mg/kg/injection, schedule: Q01DX009 (ip), vehicle: other): 106 % of control
T/C (dose: 50.0 mg/kg/injection, schedule: Q01DX009 (ip), vehicle: other): 100 % of control
T/C (dose: 100.0 mg/kg/injection, schedule: Q01DX009 (ip), vehicle: other): 100 % of control

CCCCCCCCOP(=O)(CC(CP(=O)(O)OC)P(=O)(O)OC)OCCCCCCCC (centres undefined)
T/C (dose: 50.0 mg/kg/injection, schedule: Q01DX005 (ip), vehicle: Klucel (hydroxypropylcellulose) (HPC)): 91 % of control
T/C (dose: 100.0 mg/kg/injection, schedule: Q01DX005 (ip), vehicle: Klucel (hydroxypropylcellulose) (HPC)): 94 % of control
T/C (dose: 200.0 mg/kg/injection, schedule: Q01DX005 (ip), vehicle: Klucel (hydroxypropylcellulose) (HPC)): 93 % of control

COC(=O)c1nc(=S)[nH]c(C(=O)OC)c1C(=O)c1ccc2ccccc2c1
T/C (dose: 60.0 mg/kg/injection, schedule: Q01DX005 (ip), vehicle: Klucel + Tween-80): 94 % of control
T/C (dose: 120.0 mg/kg/injection, schedule: Q01DX005 (ip), vehicle: Klucel + Tween-80): 95 % of control
T/C (dose: 240.0 mg/kg/injection, schedule: Q01DX005 (ip), vehicle: Klucel + Tween-80): 95 % of control

O=C(C1CC2CCN1CC2)N1CCN(C(=O)C2CC3CCN2CC3)CC1 (centres undefined)
T/C (dose: 1.56 mg/kg/injection, schedule: Q01DX005 (ip), vehicle: saline): 98 % of control
T/C (dose: 3.12 mg/kg/injection, schedule: Q01DX005 (ip), vehicle: saline): 102 % of control and 96 % of control
T/C (dose: 6.25 mg/kg/injection, schedule: Q01DX005 (ip), vehicle: saline): 97 % of control
T/C [6]: 101 % of control
T/C [7]: 101 % of control

O=C(O)C1CCC[N-]1.[Cl][Pd][Cl] (centres undefined)
T/C (dose: 6.25 mg/kg/injection, schedule: Q01DX009 (ip), vehicle: water): 105 % of control
T/C (dose: 12.5 mg/kg/injection, schedule: Q01DX009 (ip), vehicle: water): 96 % of control
T/C (dose: 25.0 mg/kg/injection, schedule: Q01DX009 (ip), vehicle: water): 100 % of control
T/C (dose: 50.0 mg/kg/injection, schedule: Q01DX009 (ip), vehicle: water): 114 % of control
T/C (dose: 100.0 mg/kg/injection, schedule: Q01DX009 (ip), vehicle: water): 93 % of control

O=C1N(CC2CO2)CCN1CC1CO1 (centres undefined)
T/C (dose: 25.0 mg/kg/injection, schedule: Q01DX009 (ip), vehicle: saline): 120 % of control
T/C [8]: 155 % of control and 159 % of control
T/C [9]: 206 % of control and 215 % of control

COC1(OC)C(C)C(C#N)(C#N)C1(OC)OC (centres undefined)
T/C (dose: 60.0 mg/kg/injection, schedule: Q01DX005 (ip), vehicle: Klucel (hydroxypropylcellulose) (HPC)): 100 % of control
T/C (dose: 120.0 mg/kg/injection, schedule: Q01DX005 (ip), vehicle: Klucel (hydroxypropylcellulose) (HPC)): 106 % of control

O=C1C2CCC(C2)C1CN1CCCCC1 (centres undefined)
T/C (dose: 6.25 mg/kg/injection, schedule: Q01DX005 (ip), vehicle: saline with Tween-80): 101 % of control
T/C (dose: 12.5 mg/kg/injection, schedule: Q01DX005 (ip), vehicle: saline with Tween-80): 98 % of control
T/C (dose: 25.0 mg/kg/injection, schedule: Q01DX005 (ip), vehicle: saline with Tween-80): 103 % of control

CCOC(=O)c1ccc(NC(=O)Oc2ccc3c(C)cc(=O)oc3c2)cc1
T/C [6]: 98 % of control
T/C [7]: 98 % of control
T/C (dose: 240.0 mg/kg/injection, schedule: Q01DX005 (ip), vehicle: saline with Tween-80): 103 % of control

COc1cc(Cc2nnc(Nc3ccccc3)[nH]c2=O)cc(OC)c1OC
T/C (dose: 100.0 mg/kg/injection, schedule: Q01DX001 (ip), vehicle: Klucel (hydroxypropylcellulose) (HPC)): 98 % of control
T/C (dose: 200.0 mg/kg/injection, schedule: Q01DX001 (ip), vehicle: Klucel (hydroxypropylcellulose) (HPC)): 94 % of control
T/C (dose: 400.0 mg/kg/injection, schedule: Q01DX001 (ip), vehicle: Klucel (hydroxypropylcellulose) (HPC)): 98 % of control

CCn1c2ccccc2c2cc(N=Nc3cc4ccccc4[nH]3)ccc21
T/C [10]: 115 % of control
T/C [11]: 113 % of control
T/C [12]: 113 % of control

C=CCn1c(=O)n(CC)c(=O)c2[nH]c(Cl)nc21
T/C (dose: 15.0 mg/kg/injection, schedule: Q01DX009 (ip), vehicle: saline): 106 % of control
T/C (dose: 30.0 mg/kg/injection, schedule: Q01DX009 (ip), vehicle: saline): 110 % of control
T/C (dose: 60.0 mg/kg/injection, schedule: Q01DX009 (ip), vehicle: saline): 104 % of control

C1=Cc2ccccc2C(=C2CCOCC2)c2ccccc21
T/C [13]: 113 % of control
T/C [8]: 100 % of control
T/C [9]: 94 % of control

O=C(Nc1ccc(N=C=S)cc1Cl)c1ccc2ccccc2c1O
T/C [1]: 101 % of control and 105 % of control
T/C [2]: 100 % of control and 106 % of control
T/C [3]: 110 % of control and 123 % of control

CN(C)CC[CH2][Sn]([CH3])([c]1ccccc1)[c]1ccccc1
T/C (dose: 6.25 mg/kg/injection, schedule: Q01DX009 (ip), vehicle: suspension in saline): 88 % of control
T/C (dose: 12.5 mg/kg/injection, schedule: Q01DX009 (ip), vehicle: suspension in saline): 101 % of control
T/C (dose: 25.0 mg/kg/injection, schedule: Q01DX009 (ip), vehicle: suspension in saline): 103 % of control

CN1OC2(CCCCC2)n2c(=O)c3ccccc3c(=O)n2C1c1ccccc1 (centres undefined)
T/C [13]: 100 % of control
T/C [8]: 100 % of control
T/C [9]: 95 % of control

CCC12OC(COc3ccccc3)CN1CCS2 (centres undefined)
T/C [14]: 98 % of control
T/C [15]: 107 % of control
T/C [16]: 99 % of control

[Cl][Sn]([Cl])([c]1ccccc1)[c]1ccccc1.c1ccc2nc(-c3ccc4ccccc4n3)ccc2c1
T/C (dose: 7.5 mg/kg/injection, schedule: Q01DX005 (ip), vehicle: Klucel (hydroxypropylcellulose) (HPC)): 100 % of control and 106 % of control
T/C (dose: 15.0 mg/kg/injection, schedule: Q01DX005 (ip), vehicle: Klucel (hydroxypropylcellulose) (HPC)): 100 % of control and 113 % of control
T/C (dose: 30.0 mg/kg/injection, schedule: Q01DX005 (ip), vehicle: Klucel (hydroxypropylcellulose) (HPC)): 104 % of control and 117 % of control

Cc1ccc(NC(=O)NNC(=O)CNC(=O)Nc2n[nH]c(=S)s2)c(C)c1
T/C [10]: 92 % of control
T/C [11]: 86 % of control
T/C [12]: 91 % of control

N#CCSCC(N)C(=O)O (centres undefined)
T/C [14]: 103 % of control
T/C [15]: 105 % of control
T/C [16]: 105 % of control

CC(=O)Oc1ccc(OCc2ccccc2)c(OCc2ccccc2)c1
T/C [10]: 102 % of control
T/C [11]: 99 % of control
T/C [12]: 107 % of control

COc1ccc(C(=O)C(C)Br)c(OCc2ccccc2)c1OC (centres undefined)
T/C [10]: 107 % of control
T/C [11]: 105 % of control and 109 % of control
T/C [12]: 114 % of control and 118 % of control
T/C (dose: 400.0 mg/kg/injection, schedule: Q01DX009 (ip), vehicle: saline with Tween-80): 110 % of control and 122 % of control

C[Si](C)(C)CN(Cc1ccccc1)C(=O)c1ccccc1[N+](=O)[O-]
T/C [14]: 105 % of control
T/C [15]: 98 % of control
T/C [16]: 103 % of control
